Experimental data published in patent publication US20210330611A1, “THERAPY FOR NEUROLOGICAL DISEASES/DISORDERS” (priority 2020, published 2021).
pIC50: −log10 of the molar value. Where two headings read alike, the source gives them in different places.

Columns and labels:
[1] = system: fibrin-induced microglia activation; assay: Image-based assay of fibrin-induced microglia activation (HTS and dose response); assay type: cell-based, rat; conditions: for inhibition at 10 µM: read-out: Fibrin % inhibition
[2] = system: LPS-induced microglia activation; assay: Image-based assay of LPS-induced microglia activation (HTS and dose response); assay type: cell-based, rat; conditions: for inhibition at 10 µM: read-out: LPS % inhibition
[3] = system: fibrin- and LPS-induced microglia activation; assay: cells; assay type: cell-based, rat; conditions: for inhibition at 10 µM: Rattus norvegicus, Microglia
[4] = system: primary rat microglia; assay: Cell toxicity (dead cells, size <150 μm2) in coated fibrin (cFib) assay; conditions: primary microglia HTS, fibrin assay, dead cells (size <150 μm2);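 further: share of dead cells sized under 150 µm2 at 10 µM in fibrin-stimulated microglia HTS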
[5] = Rattus norvegicus, Microglia, 48 h
[6] = classification by fibrin and LPS inhibition, HTS at 10 μM
[7] = Rattus norvegicus, Microglia, primary microglia HTS, LPS stimulation, compounds at 10 μM
[8] = quadrant by fibrin and LPS inhibition, HTS at 10 μM

With `CN1[C@@H]2C[C@@H](OC(=O)[C@H](CO)c3ccccc3)C[C@H]1[C@@H]1O[C@@H]12` [Scopolamine] the Fibrin % inhibition [1] was −26%, the LPS % inhibition [2] was −6% and the “Quadrant (FIG. 5b)” value [3] was “Q4”.

Work on “Hydrocortisone sodium phosphate [reference compound]” yielded a fib specificity [1] of 1.3, a fib_HS [1] of −0.52 and a pIC50 ([1]; read-out: fib_IC50) of 6.89. For the same molecule, the LPS specificity [2] was 0.8, the LPS_HS [2] was −0.69 and the pIC50 ([2]; read-out: LPS_IC50) was 6.79. The Activity [3] was “fib/LPS” and the “Quadrant (FIG. 5b)” value [3] was “Q2”.

`C[C@@H]1C[C@H]2[C@@H]3C[C@H](F)C4=CC(=O)C=C[C@]4(C)[C@@]3(F)[C@@H](O)C[C@]2(C)[C@@]1(O)C(=O)CO` [Flumethasone, reference compound] was tested, and the pIC50 ([1]; Rattus norvegicus, Microglia, 48 h, read-out: Fibrin IC50) was > 9.00, the inhibition at 10 µM ([1]; Rattus norvegicus, Microglia) was 109% and the IC50 ([1]; Rattus norvegicus, Microglia, read-out: Fibrin IC50 (uM)) was < 0.001 µM. For the same molecule, the IC50 ([1]; Rattus norvegicus, Microglia, read-out: Fibrin IC50 (uM) (Suppl. Table 7)) was < 0.001 µM, the inhibition at 10 µM [2, 5] was 101% and the pIC50 ([2]; Rattus norvegicus, Microglia, 48 h, read-out: LPS IC50) was > 9.00. For the same molecule, the IC50 ([2]; Rattus norvegicus, Microglia, read-out: LPS IC50 (uM)) was < 0.001 µM, the IC50 ([2]; Rattus norvegicus, Microglia, read-out: LPS IC50 (uM) (Suppl. Table 7)) was < 0.001 µM and the “Quadrant (FIG. 5b)” value [3] was “Q2”. For the same molecule, the inhibition at 10 µM ([3]; read-out: Cherry-picked Hit (Suppl. Table 7)) was > 50% and the inhibition at 10 µM ([3]; read-out: Hit) was > 50%.

`COC(=O)C1=C(C)NC(C)=C(C(=O)OC)C1c1ccccc1[N+](=O)[O-]` [Nifedipine] was tested, and the inhibition at 10 µM ([1]; Rattus norvegicus, Microglia) was -36%, the inhibition at 10 µM [2, 5] was 2% and the “Quadrant (FIG. 5b)” value [3] was “Q4”.

In the case of `C[C@H]1O[C@@H](O[C@H]2[C@@H](O)C[C@H](O[C@H]3[C@@H](O)C[C@H](O[C@H]4CC[C@@]5(C)[C@H](CC[C@@H]6[C@@H]5CC[C@]5(C)[C@@H](C7=CC(=O)OC7)CC[C@]65O)C4)O[C@@H]3C)O[C@@H]2C)C[C@H](O)[C@@H]1O` [Digitoxin], the “Fibrin % cell toxicity” value ([4]; compounds at 10 μM) was 1% and the “Quadrant (FIG. 5b)” value [3, 6] was “Q4”.

For `NC(N)=Nc1nc(CSCCC(N)=NS(N)(=O)=O)cs1` [Famotidine], the inhibition at 10 µM ([1]; Rattus norvegicus, Microglia) was -82%, the inhibition at 10 µM ([2]; Rattus norvegicus, Microglia) was 9% and the “Quadrant (FIG. 5b)” value [3] was “Q4”.

With `Nc1ccc(S(N)(=O)=O)cc1` [Sulfanilamide] the inhibition at 10 µM ([1]; Rattus norvegicus, Microglia) was -14%, the inhibition at 10 µM ([2]; Rattus norvegicus, Microglia) was 11% and the “Quadrant (FIG. 5b)” value [3] was “Q4”.

`NS(=O)(=O)c1cc(C(=O)O)c(NCc2ccco2)cc1Cl` [Furosemide] was tested, and the inhibition at 10 µM ([1]; Rattus norvegicus, Microglia) was -5%, the inhibition at 10 µM [2, 5] was 25% and the “Quadrant (FIG. 5b)” value [3] was “Q4”.

For `CCCCCCCCCCCCCCCC(=O)O[C@@H]1[C@@H](O)[C@@H](O)[C@@H]([C@H](NC(=O)[C@@H]2C[C@@H](CCC)CN2C)[C@H](C)Cl)O[C@@H]1SC.Cl` [Clindamycin Palmitate Hydrochloride], the Fibrin % inhibition ([1]; primary HTS, 10 μM, fibrin-stimulated primary microglia) was −23%, the LPS % inhibition ([2]; primary HTS, 10 μM, LPS-stimulated primary microglia) was 11% and the “Quadrant (FIG. 5b)” value ([3]; primary HTS, 10 μM) was “Q4”.

In the case of `CN(C)C(=O)Oc1cc(OC(=O)N(C)C)cc(C(O)CNC(C)(C)C)c1` (stereo not shown) [Bambuterol], the “Fibrin % cell toxicity” value [4] was 1%, the inhibition at 10 µM [2, 7] was 9% and the LPS % inhibition ([2]; primary microglia HTS, LPS stimulation, compounds at 10 μM, 10 µM) was 13%. The “Quadrant (FIG. 5b)” value [3, 8] was “Q4”.

For `Cc1nccn1CC1CCc2c(c3ccccc3n2C)C1=O` (stereo not shown) [Ondansetron], the inhibition at 10 µM ([1]; Rattus norvegicus, Microglia, primary microglia HTS, fibrin stimulation, compounds at 10 μM) was 106%, the inhibition at 10 µM ([1]; Rattus norvegicus, Microglia, primary microglia HTS, fibrin stimulation, increased cell size (>800 μm^2) as marker of activation) was -6% and the inhibition at 10 µM ([2]; Rattus norvegicus, Microglia, 48 h, primary microglia HTS, LPS stimulation, increased cell size (>800 μm^2) as marker of activation) was 14%. For the same molecule, the inhibition at 10 µM [2, 7] was 92%, the “Quadrant (FIG. 5b)” value ([3]; quadrant by fibrin and LPS inhibition in HTS of 1907 compounds) was “Q4” and the “Quadrant (FIG. 5b)” value [3, 8] was “Q2”.

`CCCCc1oc2ccccc2c1C(=O)c1cc(I)c(OCCN(CC)CC)c(I)c1` [Amiodarone] was tested, and the inhibition at 10 µM ([1]; Rattus norvegicus, Microglia) was -4%, the inhibition at 10 µM ([2]; Rattus norvegicus, Microglia) was 13% and the “Quadrant (FIG. 5b)” value [3] was “Q4”.

`CC1=C(C(=O)O)N2C(=O)[C@@H](NC(=O)[C@H](N)c3ccccc3)[C@H]2SC1` [Cephalexin] was tested, and the inhibition at 10 µM ([1]; Rattus norvegicus, Microglia) was -1%, the inhibition at 10 µM ([2]; Rattus norvegicus, Microglia) was 17% and the “Quadrant (FIG. 5b)” value [3] was “Q4”.

With `CN[C@@H](C)[C@H](O)c1ccccc1.Cl` [Ephedrine (1r,2s) Hydrochloride] the Fibrin % inhibition ([1]; primary microglia HTS, fibrin stimulation, compounds at 10 μM) was −26%, the LPS % inhibition ([2]; primary microglia HTS, LPS stimulation, compounds at 10 μM) was 10% and the “Quadrant (FIG. 5b)” value [3, 6] was “Q4”.

In the case of `CCCNCC(O)COc1ccccc1C(=O)CCc1ccccc1` (stereo not shown) [Propafenone], the inhibition at 10 µM ([1]; Rattus norvegicus, Microglia) was 16%, the inhibition at 10 µM [2, 5] was 21% and the “Quadrant (FIG. 5b)” value [3] was “Q4”.

For `O=C(CCBr)N1CCN(C(=O)CCBr)CC1` [Pipobroman], the inhibition at 10 µM ([1]; Rattus norvegicus, Microglia) was -28%, the inhibition at 10 µM [2, 5] was 0% and the “Quadrant (FIG. 5b)” value [3] was “Q4”.

In the case of `C[C@H](N)[C@H](O)c1ccccc1.Cl`, the Fibrin % inhibition [1] was −15%, the LPS % inhibition [2] was 7% and the “Quadrant (FIG. 5b)” value [3] was “Q4”.

For `Cc1cc2nc3c(=O)[nH]c(=O)nc-3n(C[C@H](O)[C@H](O)[C@H](O)COP(=O)([O-])O)c2cc1C.[Na+]` [Riboflavin 5-phosphate Sodium], the Fibrin % inhibition ([1]; primary microglia HTS, fibrin stimulation, cell size >800 μm2 as marker of activation) was 11%, the LPS % inhibition [2] was 24% and the “Quadrant (FIG. 5b)” value ([3]; classification by fibrin and LPS inhibition in HTS) was “Q4”.
